Reference: patent US20090306009A1, “Modulation of the P2Y2 Receptor Pathway” (P2-SCIENCE APS, priority 2005, published 2009)
Entries after “also recorded” stand apart in the source; their conditions may differ. Read-outs that look alike come from different tables or passages of the source.

Key:
[1] = tested on: resting leg of healthy male subjects; test: Leg haemodynamic responses to intrafemoral artery infusion of purinergic vasodilators alone and combined with tyramine; format: in vivo, human; details: for effect on increased sympathetic vasoconstrictor activity evoked by tyramine: infusion in the resting leg; for leg blood flow (LBF) during vasodilator infusion: intrafemoral artery infusion of vasodilator alone, resting leg, rest about 0.5; for leg blood flow (LBF) during vasodilator infusion / leg a-v O2 difference during vasodilator infusion / leg blood flow (LBF) during combined vasodilator and tyramine infusion / leg a-v O2 difference during combined vasodilator and tyramine infusion: mean±S.E.M.; for leg vasoconstriction caused by tyramine during vasodilator infusion: tyramine added to the infusion of the named vasodilator; for leg a-v O2 difference during vasodilator infusion: vasodilator alone; for leg blood flow (LBF) during combined vasodilator and tyramine infusion: vasodilator plus tyramine about 13.2 μmol/min; for leg a-v O2 difference during combined vasodilator and tyramine infusion: vasodilator plus tyramine; for effect of tyramine on leg vascular conductance during vasodilator infusion / effect of tyramine on LBF during vasodilator infusion: tyramine added to vasodilator infusion; for effect of tyramine on LBF during vasodilator infusion: P=0.53
Experimental: This study was performed in nine healthy male subjects from Denmark. The subjects were fully informed of any risks and discomforts associated with the experiments before giving their informed written consent to participate. The studies conformed to the code of Ethics of the World Medical Association (Declaration of Helsinki) and were approved by the Ethics Committee for Copenhagen and Frederiksberg communities.
Subjects reported to the laboratory at 8 a.m. or 1 p.m., following the ingestion of a light breakfast or lunch. Upon arrival, they rested in a supine position while three catheters were placed under local anaesthesia (1% lidocaine) into the femoral artery and vein of the right leg and in the femoral artery of the left leg using the Seldinger technique. The femoral artery and vein catheters were positioned 1-2 cm distal from the inguinal ligament. A thermistor (Edslab probe 94-0.3-2.5F) to measure venous blood temperature was inserted through the femoral venous catheter orientated in the anterograde direction for the determination of femoral venous blood flow. Femoral venous blood flow (an index of leg blood flow (LBF)) was determined by the constant infusion thermodilution technique (Andersen & Saltin, 1985 J Physiol. 366:233-49; González-Alonso et al. 2000 J Physiol. 524:603-15; Am J Physiol Heart Circ Physiol. 278(2):H321-30). LBF represents the average of two measurements made 1-2 min after the start of exercise and 1-2 min after the start of infusion of ATP, adenosine or tyramine. Arterial blood pressure was continuously monitored by a pressure transducer (Pressure Monitoring Kit, Baxter) at the level of inguinal region and calculated by integration of the pressure curve. Heart rate was determined from an electrocardiogram. All data were continuously recorded using a Powerlab system (ADInstruments, Sydney, Australia).
Leg blood flow (LBF) and mean arterial pressure (MAP) was measured during […] purinergically-induced hyperaemic conditions: (1) Intrafemoral artery infusion of adenosine (vasodilator control), (2) sequential intraarterial infusion of AMP, ADP, ATP or UTP (vasodilators), and (3), comparing the responses with the combined infusion with the vasoconstrictor drug tyramine, which evokes endogenous release of noradrenaline from sympathetic nerve endings.
Adenosine (Item Development AB, Stocksund, Sweden) was dissolved in isotonic saline (1.25 mg ml^−1) and infused at a rate of 16 μmol min^−1. AMP (Sigma) was dissolved in isotonic saline and infused at 71 μmol/min, ADP (Sigma) was dissolved in isotonic saline at […], ATP (Sigma) was dissolved in isotonic saline at 1 μmol/^min and UTP (Sigma) was dissolved in isotonic saline 1 μmol min^−1
95:2370-4; J Physiol. 547:971-6).
(§1) The combined infusion of adenosine and tyramine was to evoke a vasoconstrictor response in the resting leg of about 50%, without causing increases in arterial blood pressure, as previously documented in the Leg (Rosenmeier et al. 2004 J. Physiol. 558:351-365). Tyramine (Sigma T-2879) dissolved in isotonic saline (0.52 mg ml-1) was infused at a rate of about 13.2 μmol/min through all the tyramine trials.
The subjects first received separate infusions of adenosine, AMP, ADP, ATP or UTP for 4 min followed by combined infusions of vasodilator and tyramine for an additional 4 min.
Plasma noradrenaline and adrenaline concentrations were determined with high performance liquid chromatography with electrochemical detection (Hallman et al. 1978 Life Sci. 23(10):1049-52). Arterial and femoral haemoglobin concentration and O2 saturation were determined spectrophotometrically (OSM-3 Hemoximeter, Radiometer). PO2 was determined with the Astrup technique (ABL 5, Radiometer, Copenhagen, Denmark).
Leg vascular conductance was calculated as the quotient between LBF and mean arterial pressure. Leg O2 delivery was calculated by multiplying LBF by arterial O2 content. […]

leg blood flow [2] = details: previously registered, Rosenmeier et al. 2004; cited from earlier work
leg blood flow [3] = test: Maximal nucleotide-induced vasodilatation at rest relative to peak LBF during maximal bicycling exercise; format: in vivo, human
Text: Maximal UTP-induced vasodilatation was investigated at rest accounted for […] of the peak LBF during maximal bicycling exercise in comparison to the 78% increase in LBF previously registered for ATP (Rosenmeier et al. 2004 J. Physiol. 558:351-365).

resting leg = test: Tyramine infusion alone in the resting leg (separate studies); format: in vivo, human; details: tyramine about 13.2 μmol/min, no vasodilator
Experimental: as §1

[4] = vasodilator alone versus combined with tyramine

Compound	effect on increased sympathetic vasoconstrictor activity evoked by tyramine [1]	leg blood flow (LBF) during vasodilator infusion [1] [L/min]	leg vasoconstriction caused by tyramine during vasodilator infusion [1] [%]	leg VO2, vasodilator alone versus with tyramine [1, 4]	leg a-v O2 difference during vasodilator infusion [1]	leg blood flow (LBF) during combined vasodilator and tyramine infusion [1] [L/min]	change of leg a-v O2 difference on addition of tyramine [1, 4]	leg a-v O2 difference during combined vasodilator and tyramine infusion [1] [ml l^−1]	effect of tyramine on leg vascular conductance during vasodilator infusion [1]	effect of tyramine on LBF during vasodilator infusion [1]	maximal vasodilatation as share of peak LBF during maximal bicycling exercise (leg blood flow [2]) [%]	maximal vasodilatation as share of peak LBF during maximal bicycling exercise (leg blood flow [3]) [%]	reduction of blood flow by tyramine infusion (resting leg) [%]
Nc1ncnc2c1ncn2[C@@H]1O[C@H](COP(=O)(O)OP(=O)(O)O)[C@@H](O)[C@H]1O [ADP]	does not; also recorded: substantial vasoconstrictor response	3.34 ± 0.4	30	statistically significantly different	6.0+1 ml l^−1	2.3 ± 0.3	–	–	–	–	–	–	–
Nc1ncnc2c1ncn2[C@@H]1O[C@H](COP(=O)(O)O)[C@@H](O)[C@H]1O [AMP]	does not; also recorded: substantial vasoconstrictor response	3.7 ± 0.4	53	–	4.5±0.5 ml l^−1	1.7 ± 0.2	elevated	15.3±3.1	–	–	–	–	–
Nc1ncnc2c1ncn2[C@@H]1O[C@H](COP(=O)(O)OP(=O)(O)OP(=O)(O)O)[C@@H](O)[C@H]1O [ATP]	fully blunts	–	0	–	7.9±1.7 ml l^−1	–	Absolutely no change; also recorded: unchanged	5.7±1.6	did not alter; also recorded: no reduction	did not alter; also recorded: no reduction	78	–	–
O=c1ccn([C@@H]2O[C@H](COP(=O)(O)OP(=O)(O)OP(=O)(O)O)[C@@H](O)[C@H]2O)c(=O)[nH]1 [UTP]	fully blunts	–	0	–	7.1±0.9 ml l^−1	–	Absolutely no change; also recorded: unchanged	7.1±1.5	did not alter; also recorded: no reduction	did not alter; also recorded: no reduction	–	50	–
Nc1ncnc2c1ncn2[C@@H]1O[C@H](CO)[C@@H](O)[C@H]1O [adenosine]	does not; also recorded: substantial vasoconstrictor response	3.8 ± 0.3	56	–	7.7±0.5 ml l^−1	1.7 ± 0.2	elevated	26.0±2.2	–	–	–	–	–
NCCc1ccc(O)cc1 [tyramine]	–	–	–	–	–	–	–	–	–	–	–	–	44±3
